Regarding `CC(C)(C)OC(=O)N1CCN(c2cccc3ccc(-n4nnc5ncccc54)cc23)CC1`, the melting point is 173 to 175 °C. The figure for `COC(=O)c1ccc(Cc2c(Cl)n(C)c3cc(Cl)c(CC(C)NC(=O)N(C)C)cc23)c(OC)c1` (configuration not stated) is 175 to 176 °C; for `CSc1ccc(-c2cnc3ccc(-c4nnc(C)o4)cn23)cc1` it is 180 to 181 °C; for `C#CCCn1nnc2cc3c(=O)n(C(C)Cn4cnnn4)nnc3cc2c1=O` (configuration not stated) it is 201 to 204 °C. As to `CON(C)S(=O)(=O)c1ccccc1[N+](=O)[O-]`, the melting point lay in the range of 105 to 106 °C.

For `CCCCn1c(=O)c2c(ncn2S(=O)(=O)c2ccc(N(OC(C)=O)C(C)=O)cc2)n(CCCC)c1=O`, the melting point is 155 to 157 °C. Consider `O=C1NCN(c2ccc(F)c(Cl)c2)C12CCN(C1CCC(c3ccc(F)cc3)(c3ccc(F)cc3)CC1)CC2`, for which the melting point was in the range of 201 to 203 °C. As for `CC(C)(C)c1ccc(OCCOc2ccccc2[N+](=O)[O-])c([N+](=O)[O-])c1`, the figure is 114 to 116 °C; as for `N#Cc1c(C(N)=O)c2n(c1C1CC1)CCN(S(=O)(=O)c1ccc(C(F)(F)F)cc1)C2`, 253 to 256 °C; as for `COc1ccc(-n2ncc(C(=O)Nc3ccc(N4CCC(N5CCOCC5)CC4)c(C#N)c3)c2C)cc1`, 238 °C. With `O=C(O)Cc1ccc(C(=O)c2cccs2)cc1`, the melting point was in the range of 126 to 129 °C. With `CCOC(=O)COCc1nnc(S)n1C`, the melting point lay in the range of 86 to 88 °C. The figure for `Cc1ccc(CN2CCN3C(=O)OC(c4ccccc4)(c4ccccc4)C3C2)cc1` (configuration not stated) is 154 to 155 °C; for `CC[C@@H]1O[C@](C#CC2CC2)(C(F)(F)F)c2c(ccc(F)c2F)NC1=O` (relative stereo) it is 180 to 181 °C; for `CN1CCN(c2cc3c(cc2F)c(=O)n(O)c(=O)n3-c2cccc(F)c2)CC1` it is 176 to 178 °C. Regarding `O=S(=O)(CC(O)(CO)c1ccccc1)c1ccccc1` (configuration not stated), the melting point amounted to 137 °C. As for `COc1ccc2c(c1)C(OC(C)C)=C(C(=O)O)S2=O` (configuration not stated), the figure is 184 to 187 °C; as for `Cn1c(=O)c(C#N)c(N2CCN(C(=O)c3cccs3)CC2)c2cccnc21`, 266 °C; as for `CC(=O)SCC(Cc1ccccc1)C(=O)Nc1cccc(C(=O)NCC(=O)OCc2ccccc2)c1` (configuration not stated), 122 to 123 °C. For `Cc1cccc(Nc2cc(Cl)nc(SCC(=O)NC3CCCCC3)n2)c1C`, the melting point lay within 156 to 158 °C. `CCCCOC(=O)NCC(=O)NCC1C2CCC(O2)C1CC=CCCCC(=O)O` (configuration not stated): the melting point was 104 to 106 °C. Compound `Cc1nc(-c2cn(Cc3ccc(F)cc3)nn2)sc1C(=O)NCc1ccccc1` came in with a melting point of 114 to 115 °C.

As to `CCOC(=O)C1(C(=O)OCC)OC(=O)c2ccccc2C1(O)c1ccc(F)cc1` (configuration not stated), the melting point was 102 to 104 °C. In turn, `COc1cc(Cl)c(OC)cc1C` gave a melting point of 90 to 92 °C. With `CN(CCF)C1CN(c2ccc(N3C[C@H](CN=[N+]=[N-])OC3=O)cc2F)C1`, the melting point was in the range of 60 to 63 °C. On to `Oc1cccc(-c2ccncc2)c1`, for which the melting point was over 300 °C. `O=C1NC(=O)C(c2c[nH]c3ccccc23)=C1C(=O)c1cn2c3c(cccc13)CCC2` had a melting point of over 300 °C. Take `O=S(=O)(Nc1ccc2c(OCc3ccc(-c4ccc(Cl)cc4)cc3F)cccc2c1)C(F)(F)F`: the melting point was in the range of 151 to 153 °C.

For the compound `Cc1ccc2c3c(ncc2c1)CCC(=O)N3`, the melting point lay within 265 to 266 °C. For the compound `Nc1cccc(NCCO)c1[N+](=O)[O-]`, the melting point was 129 °C. In turn, `N#Cc1ccc(Oc2cccc(Oc3ccc(C#N)c(C#N)c3)c2)cc1C#N` showed a melting point of 183 to 186 °C. Compound `CC(C)(NC=O)C(=O)O` came in with a melting point of 130 to 131 °C. For the compound `CCOc1ccc(C(OC2CCN(CCCCCC(=O)O)CC2)c2ccccc2)cc1` (configuration not stated), the melting point is 110 to 112 °C.

Turning to `COCc1cc(C)nc2c(OCc3ccccc3)cccc12`, the melting point is 73.7 to 76.3 °C. Compound `CN1CCNC1=Nc1ccccc1N1CCOCC1` had a melting point of 156 °C. Consider `Oc1ccc(Nc2nncc3ccccc23)cc1`, for which the melting point was in the range of 245 to 247 °C. As for `Cc1cc(C)n(O)c(=O)c1Cc1ccccc1`, the melting point came to 148 °C.

For the compound `CCCCCCc1ccc(OCCCCCC(=O)Nc2ccc(O)cc2)cc1O`, the melting point turned out to be 128 °C. `Cc1c(-c2ccccc2)oc2c(C(=O)OCCN3CCOCC3)cc(Cl)cc2c1=O` yielded a melting point of 68 to 73 °C. Take `CCOC(=O)C(O)(CC(C)(C)c1cc(F)ccc1OC)C(F)(F)F` (configuration not stated): the melting point was 38 to 39 °C. Regarding `CN(C)c1ccccc1CSc1nc2ccccc2[nH]1`, the melting point was 167 to 170 °C. In the case of `COc1cc2c(c(OC)c1OC)-c1cc3c(cc1COC2)OCO3`, the melting point was in the range of 154 to 156 °C. `CCc1c(C)c(=O)n(-c2cc(OC(C)C)c(Cl)cc2F)c(=O)n1C` gave a melting point of 88 to 91 °C. In turn, `COc1ccn2nc(-c3ccccc3)c(-c3ccc(=O)n(C4CCN(C)CC4)n3)c2c1` had a melting point of 154 to 155 °C. For `CC(C)(C)Nc1c([N+](=O)[O-])cnc2ccccc12`, the melting point fell in the range of 106 to 108 °C. For `C=C(C)C[C@@H]1C(=O)N(c2ccc(C#N)c(Cl)c2)[C@@H](C)[C@H]1O`, the melting point is 110 to 112 °C. The compound `COc1ccccc1N(CCN1CCC(C(=O)c2ccc(F)cc2)CC1)C(=O)c1ccc([N+](=O)[O-])cc1` gave a melting point of 166 to 168 °C. The figure for `Nc1nc(Cl)cc(NC(CO)C2C=CCC2)n1` (configuration not stated) is 201 to 203 °C. Take `CCCOc1cc2c(cc1C(C)c1ccc(OC)cc1)OCO2` (configuration not stated): the melting point was determined as 84 °C. Regarding `CCCOc1cc2c(c3c(=O)c(-c4ccc(OC)cc4)cn(CCCN4CCOCC4)c13)CCC2`, the melting point lay in the range of 135 to 137 °C. `ON=c1cc(-c2cc3cccn3cn2)oc2cccc(C(F)(F)F)c12` registered a melting point of 255 to 257 °C. The compound `COc1nc(C)c(N2CCCn3c2nc2c(Cl)ccc(C(OCC(F)(F)F)C4CC4)c23)c(C)n1` (configuration not stated) registered a melting point of 225 to 227 °C. As for `CNCCc1[nH]c2ccccc2c1-c1ccccc1`, the figure is 148 to 151 °C. For the compound `CCc1ccc(CCOc2ccc(NC(=O)N(C)C)cc2)nc1`, the melting point is 121 to 122 °C. Consider `Cc1c(-c2ccc(F)cc2)nnn1CCC#Cc1ccccn1`, for which the melting point was in the range of 130 to 131 °C. As for `CC(COc1ccc(CC(=O)O)cc1Cl)NCC(O)c1cccc(Cl)c1` (configuration not stated), the figure is 188 to 192 °C. The compound `O=S(CCCCCOc1ccc(C2=C(c3ccccc3)CCCc3cc(O)ccc32)cc1)Cc1cccs1` (configuration not stated) displayed a melting point of 174 to 177 °C. `CC(CCC1C(C)CCCC1(C)C)Oc1ccc(C(=O)O)cc1` (configuration not stated) had a melting point of 114 to 118 °C.

For `Oc1ccc(-c2c3ccccc3c(C(F)(F)F)c3sc4ccccc4c23)cc1`, the melting point was in the range of 210 to 211 °C. As for `Cc1ccccc1S(=O)(=O)NC(=O)CCSC1c2ccccc2COc2ccc(OCc3ccc4ccc(Cl)cc4n3)cc21` (configuration not stated), the figure is 87 to 90 °C. With `CCc1nc2c(N)nc3cc(CCC(N)=O)ccc3c2n1CC1CCOCC1`, the melting point lay within 197 to 199 °C. `N#CCc1ccc(F)cc1C(=O)O`: the melting point turned out to be 140 °C. `CN1CCC(Oc2[nH]nc(-c3ccc(Cl)cc3)c2-c2ccncc2)CC1` showed a melting point of 256 to 257 °C.

As to `Cc1ccc(C)c(CN2C(=O)c3ccccc3C2=O)c1`, the melting point was in the range of 148 to 150 °C.

Compound `Cc1nc(N2CCc3ccccc3CC2)c(C#N)c(=O)n1CC(F)(F)F` had a melting point of 108 to 110 °C. `Nc1ccc(OC2CCN(C(=O)OCc3ccccc3)C2)cc1CS(=O)(=O)c1cccc2ccccc12` (configuration not stated) registered a melting point of 162 to 164 °C. With `O=C1C[C@@H](O)C[C@H](/C=C/c2ccccc2)O1` (relative stereo), the melting point lay in the range of 94 to 95 °C. In turn, `Clc1ccc(CNc2cccnc2)cc1` had a melting point of 107 to 108 °C. In turn, `CC(=CC(C)C)c1ccccc1NC(=O)c1cn(C)nc1C(F)(F)F` had a melting point of 66 to 74 °C. Take `Cc1cc(C2=NN(C(N)=S)[C@H](C)Cc3cc4c(cc32)OCO4)ccc1[N+](=O)[O-]`: the melting point is 123 to 125 °C. In turn, `COc1ccc(CCc2ccc(C(F)(F)F)cc2)cc1` came in with a melting point of 80 °C. With `Cc1cc(-n2ccnc2)c2cccc(OCc3c(Cl)ccc(S(=O)(=O)N4CCC[C@H]4C(=O)NCCCCCN(C)C)c3Cl)c2n1`, the melting point was 85 °C. Turning to `O=C1c2cccnc2N(c2ccccc2)C(=O)C12CCCC2`, the melting point was 178 to 179 °C. As to `CC1(N)CN(C(=O)Nc2ccc(C(F)(F)F)cc2)N=C1c1ccc(Cl)cc1` (configuration not stated), the melting point was 165 to 167 °C.

In turn, `CS(=O)(=O)c1ccc(-c2cc3c(cc2-c2ccc(F)cc2)OCO3)cc1` yielded a melting point of 173 to 174 °C. As for `C[C@@H](NCCOCc1ccccc1)[C@](O)(Cn1cncn1)c1ccc(Cl)cc1Cl` (relative stereo), the figure is 105 to 107 °C. As for `NNc1cnc(-c2ccccc2)cn1`, the figure is 98 to 99 °C; as for `Cc1ccc(S(=O)(=O)N=[N+]=[N-])cc1`, 79 to 82.5 °C. On to `O=C(c1ccoc1)c1ccc2[nH]c(=O)cc(-c3cccc(Cl)c3)c2c1`, for which the melting point was over 250 °C. In turn, `CC1(COc2ccc(Cc3nnn[nH]3)cc2)CCCCC1=NO` (configuration not stated) displayed a melting point of 153 to 156 °C. The figure for `Cc1ccc2c(c1)N=C(N1CCN(C)CC1)c1cc(Br)cc3c1N2CC3` is 187 to 189 °C; for `O=c1oc2c(ccc3ccccc32)c2c1CNCC2` it is 227 to 230 °C; for `FC(F)(F)c1cccc(CSc2nnc(-c3ccn4ncnc4c3)o2)c1` it is 147 to 148 °C. `O=C1NC(=O)C(c2c3n(c4ccccc24)CCC(CO)C3)=C1c1ccccc1Cl` (configuration not stated) showed a melting point of 232 to 233 °C. `CN(C(CCn1c(=O)cc(-c2ccccc2)[nH]c1=O)C(=O)NO)S(=O)(=O)c1ccc(Oc2ccccc2)cc1` (configuration not stated) yielded a melting point of 179 to 181 °C. The compound `Cc1cc2c(c3ccc(=O)[nH]c13)OC(CSCCN)C2` (configuration not stated) returned a melting point of 182 to 184 °C. As for `Cc1nnc(-c2cc(NCc3c(C)cccc3C)c3nc(C)n(C)c3c2)o1`, the figure is 256 to 257 °C.

The values are drawn from a melting point compilation (Tetko et al.; mined from patent text by program, amines drawn as free bases though some values may be those of a salt).
